The values that follow are results of earlier work, collected in patent US20050003017A1, “Hypotensive and hypertensive properties of renomedullar extracts” (priority 2000, published 2005).

For the series the following is noted: low stability; Svensson et al.

Take `CCCCC[C@H](O)/C=C/[C@H]1O[C@H]2C[C@H](O2)[C@@H]1C/C=C\CCCC(=O)O` [thromboxan A2]: the half life entry was “about 30 seconds”.
